Here are results for three compounds from PMC9989926, “Zebrafish and medaka T1R (taste receptor type 1) proteins mediate highly sensitive recognition of L‐proline” (FEBS Open Bio, 2023).

Assay [1] deals with T1, zfT1R2b/zfT1R3 (Danio rerio, UniProt A4PHQ8+Q2MHK9, Q2MHK9:Y247H).
T1 construct: gene tas1r2.2; entire coding regions, stably co-expressed with chimeric G-protein G16gust44 in Flp-In 293 cells; heterodimer; T1R3 clone Y247H (C741T); with Taste receptor type 1 member 3
T1 sequence (A4PHQ8 18-823): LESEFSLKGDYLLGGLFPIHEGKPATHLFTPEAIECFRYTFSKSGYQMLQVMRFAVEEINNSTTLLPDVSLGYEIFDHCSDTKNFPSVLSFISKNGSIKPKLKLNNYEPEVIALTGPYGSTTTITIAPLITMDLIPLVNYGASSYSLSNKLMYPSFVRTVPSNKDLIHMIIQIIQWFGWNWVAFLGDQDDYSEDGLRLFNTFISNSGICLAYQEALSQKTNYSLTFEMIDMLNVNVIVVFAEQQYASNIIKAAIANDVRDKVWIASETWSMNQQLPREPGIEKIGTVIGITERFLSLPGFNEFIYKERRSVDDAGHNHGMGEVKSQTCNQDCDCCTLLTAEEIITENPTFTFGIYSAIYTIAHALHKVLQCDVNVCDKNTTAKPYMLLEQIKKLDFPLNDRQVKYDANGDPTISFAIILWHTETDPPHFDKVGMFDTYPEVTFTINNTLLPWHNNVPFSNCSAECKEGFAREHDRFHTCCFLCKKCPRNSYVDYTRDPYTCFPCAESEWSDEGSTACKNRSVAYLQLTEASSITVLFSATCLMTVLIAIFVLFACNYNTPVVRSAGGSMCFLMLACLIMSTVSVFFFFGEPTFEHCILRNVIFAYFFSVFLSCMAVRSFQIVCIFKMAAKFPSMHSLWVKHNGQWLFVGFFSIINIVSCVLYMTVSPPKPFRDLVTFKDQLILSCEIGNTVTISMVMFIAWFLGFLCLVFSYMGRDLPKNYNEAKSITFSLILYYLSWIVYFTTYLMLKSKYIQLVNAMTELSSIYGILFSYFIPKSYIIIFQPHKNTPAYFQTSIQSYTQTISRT
T1 sequence (Q2MHK9 25-850 Y247H): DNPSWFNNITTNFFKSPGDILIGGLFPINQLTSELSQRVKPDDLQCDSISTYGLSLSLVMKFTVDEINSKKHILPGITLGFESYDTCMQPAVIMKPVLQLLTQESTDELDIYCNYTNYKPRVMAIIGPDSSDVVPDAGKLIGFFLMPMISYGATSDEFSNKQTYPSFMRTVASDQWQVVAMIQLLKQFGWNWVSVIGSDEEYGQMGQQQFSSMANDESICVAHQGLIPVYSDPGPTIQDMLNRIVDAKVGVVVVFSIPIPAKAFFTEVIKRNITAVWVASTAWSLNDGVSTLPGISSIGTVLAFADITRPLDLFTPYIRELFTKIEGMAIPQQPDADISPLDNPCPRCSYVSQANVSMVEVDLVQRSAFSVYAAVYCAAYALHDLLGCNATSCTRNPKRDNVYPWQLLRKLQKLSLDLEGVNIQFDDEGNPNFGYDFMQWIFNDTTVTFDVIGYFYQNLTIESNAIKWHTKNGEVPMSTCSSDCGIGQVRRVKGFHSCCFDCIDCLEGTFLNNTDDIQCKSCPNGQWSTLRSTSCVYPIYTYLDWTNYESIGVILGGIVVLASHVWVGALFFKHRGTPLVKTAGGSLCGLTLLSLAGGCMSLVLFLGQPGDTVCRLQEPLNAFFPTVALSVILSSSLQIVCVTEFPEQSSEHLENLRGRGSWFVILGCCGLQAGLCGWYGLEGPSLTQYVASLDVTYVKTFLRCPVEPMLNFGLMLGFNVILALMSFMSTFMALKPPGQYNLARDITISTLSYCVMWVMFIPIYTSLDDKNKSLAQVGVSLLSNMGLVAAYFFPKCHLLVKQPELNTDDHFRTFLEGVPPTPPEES
The assay can be described thus: FLIPR Calcium […] cell-based calcium assay, FlexStation […].

Assay [2] concerns the target T2, mfT1R2a/mfT1R3 (Oryzias latipes, UniProt Q2MHK2+Q2MHK5).
T2 construct: gene TAS1R2a; entire coding regions, stably co-expressed with chimeric G-protein G16gust44 in Flp-In 293 cells; heterodimer; with Taste receptor type 1 member 3
Described as above.

In assay [3] the target is T3, zfT1R2a/zfT1R3 (Danio rerio, UniProt Q2MHK9+Q2MHL1, Q2MHK9:Y247H).
T3 construct: gene tas1r2.1; entire coding regions, stably co-expressed with chimeric G-protein G16gust44 in Flp-In 293 cells; heterodimer; T1R3 clone Y247H (C741T); with Taste receptor type 1 member 3
T3 sequence (Q2MHL1 26-825): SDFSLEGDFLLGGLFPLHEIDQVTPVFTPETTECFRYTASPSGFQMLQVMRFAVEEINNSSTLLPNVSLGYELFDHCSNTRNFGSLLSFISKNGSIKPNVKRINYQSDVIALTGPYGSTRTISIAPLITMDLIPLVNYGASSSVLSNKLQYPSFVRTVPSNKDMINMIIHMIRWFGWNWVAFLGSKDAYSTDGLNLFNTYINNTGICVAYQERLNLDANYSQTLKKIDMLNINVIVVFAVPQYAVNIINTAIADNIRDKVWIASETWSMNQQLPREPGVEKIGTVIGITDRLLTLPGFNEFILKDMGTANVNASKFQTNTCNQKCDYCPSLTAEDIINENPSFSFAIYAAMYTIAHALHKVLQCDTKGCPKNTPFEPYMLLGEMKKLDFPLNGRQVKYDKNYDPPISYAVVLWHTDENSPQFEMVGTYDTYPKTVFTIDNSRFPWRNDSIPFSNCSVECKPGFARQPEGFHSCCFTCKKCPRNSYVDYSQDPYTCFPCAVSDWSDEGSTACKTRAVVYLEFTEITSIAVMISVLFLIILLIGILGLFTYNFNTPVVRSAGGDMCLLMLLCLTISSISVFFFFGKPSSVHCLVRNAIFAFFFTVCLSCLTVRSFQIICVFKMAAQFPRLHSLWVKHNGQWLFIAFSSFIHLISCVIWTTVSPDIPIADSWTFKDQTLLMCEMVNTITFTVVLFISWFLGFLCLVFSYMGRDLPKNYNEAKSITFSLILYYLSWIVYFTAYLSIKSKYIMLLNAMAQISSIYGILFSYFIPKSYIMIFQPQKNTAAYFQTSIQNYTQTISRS
T3 sequence (Q2MHK9 25-850 Y247H): T1 sequence (Q2MHK9 25-850 Y247H)
The description is as above.

The target of assay [4] is T4, mfT1R2b/mfT1R3 (Oryzias latipes, UniProt Q2MHK2+Q2MHK4).
T4 construct: gene TAS1R2b; entire coding regions, stably co-expressed with chimeric G-protein G16gust44 in Flp-In 293 cells; heterodimer; with Taste receptor type 1 member 3
T4 sequence (Q2MHK4 entry or part of it): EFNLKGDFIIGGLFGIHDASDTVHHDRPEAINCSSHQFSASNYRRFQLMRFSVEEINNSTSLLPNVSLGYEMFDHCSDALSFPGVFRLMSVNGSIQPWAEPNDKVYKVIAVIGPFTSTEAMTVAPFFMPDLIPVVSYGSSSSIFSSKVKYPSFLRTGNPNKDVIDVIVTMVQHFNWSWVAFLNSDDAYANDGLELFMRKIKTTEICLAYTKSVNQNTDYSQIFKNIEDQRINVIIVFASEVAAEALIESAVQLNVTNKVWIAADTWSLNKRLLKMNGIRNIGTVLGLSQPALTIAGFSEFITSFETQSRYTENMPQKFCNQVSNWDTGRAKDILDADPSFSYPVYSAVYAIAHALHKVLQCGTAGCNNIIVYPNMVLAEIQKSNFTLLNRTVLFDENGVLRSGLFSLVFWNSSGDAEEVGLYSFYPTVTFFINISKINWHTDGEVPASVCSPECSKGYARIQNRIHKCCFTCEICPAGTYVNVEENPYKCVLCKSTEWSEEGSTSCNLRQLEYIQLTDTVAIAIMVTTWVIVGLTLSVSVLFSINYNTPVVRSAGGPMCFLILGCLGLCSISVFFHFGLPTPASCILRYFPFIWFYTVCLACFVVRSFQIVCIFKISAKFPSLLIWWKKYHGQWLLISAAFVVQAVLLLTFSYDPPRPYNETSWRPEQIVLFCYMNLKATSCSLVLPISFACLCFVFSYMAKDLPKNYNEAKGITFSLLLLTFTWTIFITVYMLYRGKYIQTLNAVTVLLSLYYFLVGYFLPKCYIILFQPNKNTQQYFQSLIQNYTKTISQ
T4 sequence (Q2MHK2 entry or part of it): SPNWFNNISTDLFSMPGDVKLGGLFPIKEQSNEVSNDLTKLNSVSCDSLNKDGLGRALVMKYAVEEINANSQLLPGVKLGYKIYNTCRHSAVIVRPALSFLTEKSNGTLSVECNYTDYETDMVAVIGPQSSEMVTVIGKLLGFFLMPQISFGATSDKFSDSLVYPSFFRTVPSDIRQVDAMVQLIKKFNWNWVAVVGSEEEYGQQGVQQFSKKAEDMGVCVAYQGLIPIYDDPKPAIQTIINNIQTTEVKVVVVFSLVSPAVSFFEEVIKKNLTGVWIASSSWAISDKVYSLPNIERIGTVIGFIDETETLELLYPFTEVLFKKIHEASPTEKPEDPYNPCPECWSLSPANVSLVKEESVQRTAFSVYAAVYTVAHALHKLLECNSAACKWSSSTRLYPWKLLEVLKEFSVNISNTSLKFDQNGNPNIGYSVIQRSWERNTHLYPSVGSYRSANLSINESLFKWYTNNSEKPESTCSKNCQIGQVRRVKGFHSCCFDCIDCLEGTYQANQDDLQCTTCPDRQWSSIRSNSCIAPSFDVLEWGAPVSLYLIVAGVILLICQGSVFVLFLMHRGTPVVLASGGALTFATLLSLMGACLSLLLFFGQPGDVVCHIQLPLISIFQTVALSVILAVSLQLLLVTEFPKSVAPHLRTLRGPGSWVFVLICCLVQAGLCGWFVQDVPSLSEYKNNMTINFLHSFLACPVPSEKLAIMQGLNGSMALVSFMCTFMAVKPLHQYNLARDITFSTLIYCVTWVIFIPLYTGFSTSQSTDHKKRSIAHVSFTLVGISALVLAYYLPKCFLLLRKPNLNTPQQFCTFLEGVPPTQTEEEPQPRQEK
The description is as above.

Assay [5] deals with T5, mfT1R2c/mfT1R3 (Oryzias latipes, UniProt Q2MHK2+Q2MHK3, Q2MHK3:V394L).
T5 construct: gene TAS1R2c
T5 sequence (Q2MHK2 entry or part of it): as above
T5 sequence (Q2MHK3 entry or part of it V394L): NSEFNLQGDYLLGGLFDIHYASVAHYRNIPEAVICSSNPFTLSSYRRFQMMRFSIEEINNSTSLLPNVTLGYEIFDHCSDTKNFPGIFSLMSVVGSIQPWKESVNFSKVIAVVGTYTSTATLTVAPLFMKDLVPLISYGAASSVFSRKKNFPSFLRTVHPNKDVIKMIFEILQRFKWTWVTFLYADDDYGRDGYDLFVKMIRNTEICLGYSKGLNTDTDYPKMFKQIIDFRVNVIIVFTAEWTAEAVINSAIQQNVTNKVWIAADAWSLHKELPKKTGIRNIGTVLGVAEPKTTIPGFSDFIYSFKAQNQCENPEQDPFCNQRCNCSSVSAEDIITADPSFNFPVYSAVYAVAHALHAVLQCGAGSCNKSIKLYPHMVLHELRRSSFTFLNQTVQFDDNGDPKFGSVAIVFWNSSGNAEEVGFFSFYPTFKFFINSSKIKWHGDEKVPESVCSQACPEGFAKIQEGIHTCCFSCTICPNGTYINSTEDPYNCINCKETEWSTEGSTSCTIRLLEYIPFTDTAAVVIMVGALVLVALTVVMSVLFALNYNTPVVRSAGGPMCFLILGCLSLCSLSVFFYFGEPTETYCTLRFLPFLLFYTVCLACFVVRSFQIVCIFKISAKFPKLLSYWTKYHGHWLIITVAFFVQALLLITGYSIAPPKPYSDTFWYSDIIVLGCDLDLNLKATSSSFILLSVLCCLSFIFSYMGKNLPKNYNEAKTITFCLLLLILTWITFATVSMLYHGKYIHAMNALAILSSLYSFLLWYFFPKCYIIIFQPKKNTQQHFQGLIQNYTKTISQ
The assay can be described thus: cell-based.

T2 sequence (Q2MHK2 entry or part of it): as the sequence (Q2MHK2 entry or part of it) above
T2 sequence (Q2MHK5 entry or part of it): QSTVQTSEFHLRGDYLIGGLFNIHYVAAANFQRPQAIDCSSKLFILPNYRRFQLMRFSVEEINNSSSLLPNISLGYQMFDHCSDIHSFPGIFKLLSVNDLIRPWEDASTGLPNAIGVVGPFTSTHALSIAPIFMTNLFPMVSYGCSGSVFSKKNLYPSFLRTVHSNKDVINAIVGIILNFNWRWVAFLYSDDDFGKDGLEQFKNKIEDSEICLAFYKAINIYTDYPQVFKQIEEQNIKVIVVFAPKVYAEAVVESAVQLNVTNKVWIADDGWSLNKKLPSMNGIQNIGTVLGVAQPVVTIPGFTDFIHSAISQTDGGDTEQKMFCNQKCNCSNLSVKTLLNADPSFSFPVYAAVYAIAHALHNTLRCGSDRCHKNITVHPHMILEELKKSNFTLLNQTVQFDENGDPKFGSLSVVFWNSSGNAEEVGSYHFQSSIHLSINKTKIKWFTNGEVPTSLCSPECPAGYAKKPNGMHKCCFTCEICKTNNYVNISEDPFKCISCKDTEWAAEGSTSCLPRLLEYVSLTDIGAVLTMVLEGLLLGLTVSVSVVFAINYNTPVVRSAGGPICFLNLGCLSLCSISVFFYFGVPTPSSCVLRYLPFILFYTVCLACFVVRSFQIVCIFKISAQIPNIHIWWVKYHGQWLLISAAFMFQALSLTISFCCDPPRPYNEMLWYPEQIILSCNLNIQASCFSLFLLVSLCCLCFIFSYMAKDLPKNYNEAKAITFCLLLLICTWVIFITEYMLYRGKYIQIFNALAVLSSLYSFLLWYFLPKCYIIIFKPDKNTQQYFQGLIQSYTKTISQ

As a reminder, the EC50 is the concentration that produces a half-maximal response. Take `C[C@H](N)C(=O)O` [L-alanine]: the EC50 is 2030 ± 150 µM in assay [1], 1230 ± 70 µM in assay [2], 220 ± 18 µM in assay [3] and 1750 ± 140 µM in assay [4].

For the compound `NC(=O)CC[C@H](N)C(=O)O` [L-glutamine], the EC50 in assay [2] was 58.8 ± 7.6 µM.

For the compound `O=C(O)[C@@H]1CCCN1` [L-proline], the concentration for a half-maximal effect (EC50) stood at 1720 ± 350 µM in assay [1], 4.43 ± 0.38 µM in assay [5], 164 ± 36 µM in assay [3] and 3050 ± 220 µM in assay [4].
